“And” between values parts separate entries of the source, which are not always exact repeats. Equal values may be shown once. “Also recorded” adds a separate entry of the source. Read-outs that look alike come from different tables or passages of the source. Where only a bound is given, the exact number is not on record here.

In general, IC50 refers to the concentration at which inhibition is half-maximal.

One series deals with Tdp1 (Homo sapiens, UniProt Q9NUW8). Description: Tdp1 activity, real-time fluorescence oligonucleotide biosensor (FAM/BHQ1) assay. Type of series: biochemical. An excerpt:
An oligonucleotide real-time biosensor was used based on the ability of Tdp1 to remove fluorophore quenchers from the 3′-end of DNA, as previously described. The hexadecameric oligonucleotide carried 5(6)-carboxyfluorescein (FAM) at the 5′-end and the fluorophore quencher BHQ1 (Black Hole Quencher-1) at the 3′-end. Tdp1 inhibitors prevent removal of fluorophore quenchers, thus reducing fluorescence intensity.
The methodology has been reported in our previous work and consists of fluorescence intensity measurement in a reaction of quencher removal from a fluorophore quencher-coupled DNA oligonucleotide catalyzed by Tdp1. The reaction was carried out at different concentrations of inhibitors (the control samples contained 1% of DMSO, Sigma, St. Louis, MO, USA). The reaction mixtures contained Tdp1 buffer (50 mM Tris-HCl pH 8.0, 50 mM NaCl, and 7 mM β-mercaptoethanol), 50 nM biosensor, and an inhibitor being tested. Purified Tdp1 (1.5 nM) triggered the reaction. The biosensor (5′-[FAM] AAC GTC AGGGTC TTC C [BHQ]-3′) was synthesized in the Laboratory of Biomedical Chemistry at the Institute of Chemical Biology and Fundamental Medicine (Novosibirsk, Russia).
The reactions were incubated on a POLARstar OPTIMA fluorimeter (BMG LABTECH, GmbH, Ortenberg, Germany) to measure fluorescence every 55 s (ex. 485/em. 520 nm) during the linear phase (here, data from minute 0 to minute 8). The values of IC50 were determined using a six-point concentration response curve in minimum three independent experiments and were calculated using MARS Data Analysis 2.0 (BMG LABTECH, GmbH, Ortenberg, Germany).

Series [1] is described as follows: Intrinsic cytotoxicity, EZ4U cell proliferation and cytotoxicity assay. Type of series: cell-based, human. To be noted: human, HeLa cells, compound alone, 3 days, read-out: CC50 (half maximal cytotoxic concentration). The source says: (§1) Top1 poisons are used as anticancer drugs for the treatment for various oncological diseases. Since Tdp1 is involved in the removal of DNA damage caused by Top1 poisons, the activity of Tdp1 can lead to the development of drug resistance. Thus, it is believed that Tdp1 inhibition can enhance the efficacy of Top1 poisons. Tdp1 inhibitors should have the lowest possible intrinsic toxicity to minimize potential side effects. Therefore, we studied the intrinsic cytotoxicity of the compounds against HeLa cells (cervical carcinoma). EZ4U cell proliferation and cytotoxicity assay results are shown in Figure 4 for the ligands with Tdp1 inhibitory activity.
(§2) The cell culture was monitored for 3 days.

In series [2] the test system is HeLa cells. The series is described as above. To be noted: for CC50: compound alone, 3 days, read-out: CC50 (half maximal cytotoxic concentration); for Intrinsic toxicity to HeLa cells (in words): without topotecan. Type of series: cell-based, human.
Source text: as §1, §2

Series [3] relates to HeLa cells. Kind of series: cells. To be noted: for effect of topotecan on the cytotoxicity of the Tdp1 inhibitor (in words): Mann–Whitney U-test; for CC50: Homo sapiens, HeLa. Here is the method: For comparison, the concentration of the inhibitors was increased to 20 μM.
Cytotoxicity of the compounds to HeLa (human cervical cancer) cell line was examined using the EZ4U Cell Proliferation and Cytotoxicity Assay (Biomedica, Vienna, Austria), according to the manufacturer’s protocols. The cells were grown in Iscove’s modified Dulbecco’s medium (IMDM) with 40 μg/mL gentamicin, 50 IU/mL penicillin, 50 μg/mL streptomycin (MP Biomedicals, Santa Ana, CA, USA), and 10% of fetal bovine serum (Biolot, St. Petersburg, Russia) in a 5% CO2 atmosphere. After formation of a 30–50%-monolayer, the tested compounds were added to the medium. The volume of the added reagents was 1/100 of the total volume of the culture medium, and the amount of DMSO (Sigma, St. Louis, MO, USA) was 1% of the final volume. Control cells were grown in the presence of 1% DMSO. The cell culture was monitored for 3 days. To assess the influence of the inhibitors on the cytotoxic effect of topotecan (ACTAVIS GROUP PTC ehf., Bucharest, Romania), 50% cytotoxic concentrations of topotecan and of each inhibitor were determined to attain a defined single-agent effect. Then, minimum two independent tests were performed with each inhibitor in combination with topotecan. When using a combination of drugs, Tdp1 inhibitors were first added, then topotecan was added immediately (within 10–15 min).

Setting [4] is: purified Tdp1 1.5 nM, 50 nM biosensor, read-out: IC50 (Tdp1 inhibiting activity).
Setting [5] is: Tdp1, values of supplementary Table S1 (less rounded), read-out: IC50 (µM), Table S1.

Sequence of Tdp1 (Q9NUW8 whole entry): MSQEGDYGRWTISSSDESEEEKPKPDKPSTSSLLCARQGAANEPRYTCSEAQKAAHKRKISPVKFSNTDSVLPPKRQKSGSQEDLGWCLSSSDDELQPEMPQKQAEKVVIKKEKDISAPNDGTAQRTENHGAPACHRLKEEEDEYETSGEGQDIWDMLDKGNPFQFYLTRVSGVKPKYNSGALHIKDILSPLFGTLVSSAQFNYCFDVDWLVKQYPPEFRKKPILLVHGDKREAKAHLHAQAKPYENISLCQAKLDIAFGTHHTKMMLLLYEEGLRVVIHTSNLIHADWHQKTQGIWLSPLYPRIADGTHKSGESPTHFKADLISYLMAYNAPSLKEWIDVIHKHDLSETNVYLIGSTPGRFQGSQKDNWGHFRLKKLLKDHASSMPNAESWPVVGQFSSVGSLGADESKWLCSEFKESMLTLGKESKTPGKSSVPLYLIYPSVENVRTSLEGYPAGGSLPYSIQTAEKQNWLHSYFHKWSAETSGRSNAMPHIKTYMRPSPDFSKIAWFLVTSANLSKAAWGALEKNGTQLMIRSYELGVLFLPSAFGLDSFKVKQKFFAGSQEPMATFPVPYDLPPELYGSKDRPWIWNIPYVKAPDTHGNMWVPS

Take `CCCCS(=O)(=O)Oc1c(OC)ccc2c1CN1CCc3cc4c(cc3C1C2)OCO4` (stereo not shown) [11d]: the half-inhibitory concentration (IC50) at Tdp1 (setting [4]) was greater than 15 µM.

`CCCS(=O)(=O)Oc1c(OC)ccc2c1CN1CCc3cc4c(cc3C1C2)OCO4` (stereo not shown) [11c]: at Tdp1 (setting [4]), the IC50 was greater than 15 µM.

`COc1cc(Br)c2c(c1OS(=O)(=O)c1c(F)c(F)c(F)c(F)c1F)CN1CCc3cc4c(cc3C1C2)OCO4` (stereo not shown) [12f]: at Tdp1 (setting [4]), the IC50 is 0.53 ± 0.01 µM. In addition, the CC50 at 3 days in series [1] turned out to be 10 µM. The CC50 in the series with HeLa cells [2] stood at 9.9 ± 4.5 µM. Also, in the series on HeLa cells [3] (HeLa cells, 2 μM topotecan), the “effect of topotecan on the cytotoxicity of the Tdp1 inhibitor (in words)” value (“effect … of the Tdp1 inhibitor (in words)” for short) was “negligible or unreliable”.

Regarding `COc1ccc2c(c1OS(=O)(=O)c1c(F)c(F)cc(F)c1F)CN1CCc3cc4c(cc3C1C2)OCO4` (stereo not shown) [11g], the half-inhibitory concentration (IC50) at Tdp1 (setting [5]) and on Tdp1 (setting [4]) was 1.05 ± 0.05 µM each time. For the same molecule, the CC50 at 3 days in series [1] was greater than 100 µM. In the series on HeLa cells [2] (100 μM maximum concentration), this molecule showed a living cells of 100%. Moreover, in the series with HeLa cells [2], the “Intrinsic toxicity to HeLa cells (in words)” value (“Intrinsic toxicity” below) is “low toxicity; also recorded: nontoxic”. Moreover, the “sensitizing effect on the cytotoxicity of topotecan (in words)” value in the series with HeLa cells [3] (HeLa cells) was “doubled; also recorded: significant effect; also recorded: pronounced sensitizing effect; also recorded: sensitized the cancer cells to topotecan”. The “effect … of the Tdp1 inhibitor (in words)” value in the series with HeLa cells [3] (HeLa cells, 2 μM topotecan) is reported as “significantly increased”. The “decrease in cell survival in the presence of topotecan” value in the series on HeLa cells [3] (HeLa cells, 2 μM topotecan, at all inhibitor concentrations) is ~ 30%.

On to `CCS(=O)(=O)Oc1c(OC)cc(Br)c2c1CN1CCc3cc4c(cc3C1C2)OCO4` (stereo not shown) [12b], for which the half-inhibitory concentration (IC50) on Tdp1 (setting [4]) is greater than 15 µM.

As to `COc1cc(Br)c2c(c1OS(C)(=O)=O)CN1CCc3cc4c(cc3C1C2)OCO4` (stereo not shown) [12a], the IC50 on Tdp1 (setting [4]) was greater than 15 µM.

On to `COc1ccc2cc3[n+](cc2c1OC)CCc1cc2c(cc1-3)OCO2` [compound 9, berberine], for which, at Tdp1 (setting [5]), the IC50 is greater than 15 µM.

Turning to `CC[C@@]1(O)C(=O)OCc2c1cc1n(c2=O)Cc2cc3c(CN(C)C)c(O)ccc3nc2-1` [topotecan, reference compound], the CC50 at 3 days in series [1] came out at 2 µM. Besides, the CC50 in the series on HeLa cells [3] (read-out: CC50, μM–5 μM Tdp1 inhibitor (cytotoxic potential of topotecan)) came out at 6.8 ± 1.1 µM; in the series with HeLa cells [3] (read-out: CC50, μM–20 μM Tdp1 inhibitor (cytotoxic potential of topotecan)) it was 6.8 ± 1.1 µM.

For the molecule `COc1cc(Br)c2c(c1OS(=O)(=O)c1c(F)c(F)cc(F)c1F)CN1CCc3cc4c(cc3C1C2)OCO4` (stereo not shown) [12g], the IC50 on Tdp1 (setting [5]) came to 1.33 ± 0.28 µM; on Tdp1 (setting [4]), 1.3 ± 0.3 µM. Moreover, the CC50 at 3 days in series [1] came out at 95 ± 5 µM. The “sensitizing effect on the cytotoxicity of topotecan (in words)” value with HeLa cells [3] (HeLa cells) was “doubled; also recorded: significant effect; also recorded: pronounced sensitizing effect; also recorded: sensitized the cancer cells to topotecan”. The “effect … of the Tdp1 inhibitor (in words)” value in the series with HeLa cells [3] (HeLa cells, 2 μM topotecan) is “significantly increased”.

For the molecule `CCS(=O)(=O)Oc1c(OC)ccc2c1CN1CCc3cc4c(cc3C1C2)OCO4` (stereo not shown) [11b], the IC50 at Tdp1 (setting [4]) was greater than 15 µM.

Take `CCCCS(=O)(=O)Oc1c(OC)cc(Br)c2c1CN1CCc3cc4c(cc3C1C2)OCO4` (stereo not shown) [12d]: the figures for the IC50 on Tdp1 (setting [5]) and at Tdp1 (setting [4]) were 4.06 ± 1.05 µM and 4 ± 1 µM, respectively. For the same molecule, the CC50 at 3 days in series [1] is greater than 100 µM. Besides, the “Intrinsic toxicity” value in the series with HeLa cells [2] was “non-toxic up to 100 μM”. For the same molecule, in the series on HeLa cells [3] (HeLa cells, 2 μM topotecan), the “effect … of the Tdp1 inhibitor (in words)” value is “negligible or unreliable”.

Consider `COc1ccc2c(c1OS(=O)(=O)c1c(F)c(F)c(F)c(F)c1F)CN1CCc3cc4c(cc3C1C2)OCO4` (stereo not shown) [11f], for which the IC50 on Tdp1 (setting [5]) is 0.98 ± 0.2 µM; on Tdp1 (setting [4]), ~1 µM and 1 µM. Further, the CC50 at 3 days in series [1] worked out at 10 µM. In addition, the cell death with HeLa cells [2] (5 μM) is 20%. The cells that die with HeLa cells [2] (20 μM) is listed as 90%. The CC50 in the series with HeLa cells [2] was 11 ± 2 µM. In addition, in the series on HeLa cells [3] (HeLa cells, 2 μM topotecan), the “decrease of CC50 in the presence of topotecan (fold)” value is “three fold”. In addition, the “effect … of the Tdp1 inhibitor (in words)” value in the series on HeLa cells [3] (HeLa cells, 2 μM topotecan) was “significantly increased”.

As for `CCCCS(=O)(=O)Oc1c(OC)ccc2cc3[n+](cc12)CCc1cc2c(cc1-3)OCO2` [10d, 9-(Butane-1-sulfonyl)oxy-10-methoxy-2,3-methylenedioxy protoberberine chloride], on Tdp1 (setting [4]), the half-maximal inhibitory concentration (IC50) is greater than 15 µM.

With `COc1ccc2c(c1OS(C)(=O)=O)CN1CCc3cc4c(cc3C1C2)OCO4` (stereo not shown) [11a], at Tdp1 (setting [4]), the IC50 was greater than 15 µM.

Consider `COc1ccc2c(c1OS(=O)(=O)c1ccc(C)cc1)CN1CCc3cc4c(cc3C1C2)OCO4` (stereo not shown) [11e], for which the “Tdp1 inhibitory activity (in words)” value at Tdp1 was “inactive”. In addition, the concentration for half-maximal inhibition (IC50) on Tdp1 (setting [4]) is greater than 15 µM.

In the case of `CCCS(=O)(=O)Oc1c(OC)cc(Br)c2c1CN1CCc3cc4c(cc3C1C2)OCO4` (stereo not shown) [12c], the half-inhibitory concentration (IC50) is 2.86 ± 1.25 µM at Tdp1 (setting [5]) and 2.9 ± 1.3 µM on Tdp1 (setting [4]). The CC50 at 3 days in series [1] was greater than 100 µM. In addition, the “Intrinsic toxicity” value with HeLa cells [2] was “non-toxic up to 100 μM”. For the same molecule, the “effect … of the Tdp1 inhibitor (in words)” value in the series on HeLa cells [3] (HeLa cells, 2 μM topotecan) is on record as “negligible or unreliable”.

In the case of `CCS(=O)(=O)Oc1c(OC)ccc2cc3[n+](cc12)CCc1cc2c(cc1-3)OCO2` [10b, 9-Ethanesulfonyloxy-10-methoxy-2,3-methylenedioxyprotoberberine chloride], on Tdp1 (setting [4]), the IC50 is greater than 15 µM.

In the case of `COc1cc(Br)c2c(c1OS(=O)(=O)c1c(F)c(F)c(C(F)(F)F)c(F)c1F)CN1CCc3cc4c(cc3C1C2)OCO4` (stereo not shown) [12h], the figures for the half-inhibitory concentration (IC50) at Tdp1 (setting [5]) and at Tdp1 (setting [4]) were 1.38 ± 0.3 µM and 1.4 ± 0.3 µM, respectively. The CC50 at 3 days in series [1] stood at 2.2 ± 1.5 µM. Also, the “effect … of the Tdp1 inhibitor (in words)” value in the series on HeLa cells [3] (HeLa cells, 2 μM topotecan) is “negligible or unreliable”.

Regarding `COc1ccc2cc3[n+](cc2c1OS(C)(=O)=O)CCc1cc2c(cc1-3)OCO2` [10a, 10-Methoxy-9-methanesulfonyloxy-2,3-methylenedioxyprotoberberine chloride], at Tdp1 (setting [4]), the 50% inhibitory concentration (IC50) is greater than 15 µM.

For the molecule `COc1ccc2c(c1OS(=O)(=O)c1c(F)c(F)c(C(F)(F)F)c(F)c1F)CN1CCc3cc4c(cc3C1C2)OCO4` (stereo not shown) [11h], the results for the half-maximal inhibitory concentration (IC50) at Tdp1 (setting [5]) and at Tdp1 (setting [4]) were 0.93 ± 0.22 µM and 0.9 ± 0.2 µM, respectively. For the same molecule, the CC50 at 3 days in series [1] came out at 2.6 ± 0.1 µM. Besides, the “effect … of the Tdp1 inhibitor (in words)” value in the series on HeLa cells [3] (HeLa cells, 2 μM topotecan) is recorded as “negligible or unreliable”.

Turning to `CCCS(=O)(=O)Oc1c(OC)ccc2cc3[n+](cc12)CCc1cc2c(cc1-3)OCO2` [10c, 10-Methoxy-2,3-methylenedioxy-9-((propane-1-sulfonyl)oxy)protoberberine chloride], the IC50 at Tdp1 (setting [4]) was greater than 15 µM.

As to `COc1cc(Br)c2c(c1OS(=O)(=O)c1ccc(C)cc1)CN1CCc3cc4c(cc3C1C2)OCO4` (stereo not shown) [12e], the “Tdp1 inhibitory activity (in words)” value on Tdp1 is “inactive”. Moreover, on Tdp1 (setting [4]), the IC50 is greater than 15 µM.
